Data: US6355799B1, “Substituted benzene compounds, process for their preparation, and herbicidal and defoliant compositions containing them” (ISK Americas Incorporated, priority 1997, dated 2002)

Tests used:
Assay type in all cases: in vivo
[1] = tested on: redroot pigweed (Amaranthus retroflexus, AMARE); assay: Post-emerge test, greenhouse herbicide activity screening; settings: post-emerge, phytotoxicity rating 0-100 at 14 days after application
Outline: (§1)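 Applied at 15–1000 g ai/ha from acetone in 187 l/ha spray volume. Post-emergence applications included 0.25% v/v non-ionic surfactant and reached plants sown 8–21 days before. Pre-emergence applications were incorporated by surface watering. Efficacy or crop damage was rated on a 0–100 scale after 14 days.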

[2] = tested on: sicklepod (Cassia obtusifolia, CASOB); assay: as above; settings: post-emerge, phytotoxicity rating 0-100 at 14 days after application
Outline: as §1

[3] = tested on: ivyleaf morningglory (Ipomoea hederacea, IPOHE); assay: as above; settings: post-emerge, phytotoxicity rating 0-100 at 14 days after application
Outline: as §1

[4] = tested on: velvetleaf (Abutilon theophrasti, ABUTH); assay: as above; settings: post-emerge, phytotoxicity rating 0-100 at 14 days after application
Outline: as §1

[5] = tested on: large crabgrass (Digitaria sanguinalis, DIGSA); assay: as above; settings: post-emerge, phytotoxicity rating 0-100 at 14 days after application
Outline: as §1

[6] = tested on: green foxtail (Setaria viridis, SETVI); assay: as above; settings: post-emerge, phytotoxicity rating 0-100 at 14 days after application
Outline: as §1

[7] = tested on: barnyardgrass (Echinochloa crus-galli, ECHCG); assay: as above; settings: post-emerge, phytotoxicity rating 0-100 at 14 days after application
Outline: as §1

[8] = tested on: lambsquarters (Chenopodium album, CHEAL); assay: as above; settings: post-emerge, phytotoxicity rating 0-100 at 14 days after application
Outline: as §1

[9] = tested on: field corn (Zea mays L., var. Dekalb 535, CORN); assay: Pre-emerge test, crop safety; settings: crop damage, pre-emerge, phytotoxicity rating 0-100 at 14 days after application
Outline: (§2)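 Fourteen days after spraying, crop and weed injury was graded visually from 0, no effect, to 100, every plant dead. Test substances were dissolved in acetone and applied at 15–1000 g ai/ha with a flat-fan nozzle. Application was either pre-emergence, one day after sowing, or post-emergence at the 2–3 leaf stage.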

[10] = tested on: upland rice (Oryza sp., var. Tebonnet, RICE); assay: Pre-emerge test, crop safety; settings: crop damage, pre-emerge, phytotoxicity rating 0-100 at 14 days after application
Outline: as §2

[11] = tested on: redroot pigweed (Amaranthus retroflexus, AMARE); assay: Pre-emerge test, greenhouse herbicide activity screening; settings: pre-emerge, phytotoxicity rating 0-100 at 14 days after application
Outline: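 Rating: 0–100 visual injury, 14 DAA. Application: acetone, 187 l/ha, 15–1000 g ai/ha, flat-fan track sprayer with nozzle 40–45 cm above soil or canopy. Post-emerge runs used 0.25% v/v surfactant on 2–3 leaf plants.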

[12] = tested on: sicklepod (Cassia obtusifolia, CASOB); assay: as above; settings: pre-emerge, phytotoxicity rating 0-100 at 14 days after application
Outline: (§3)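 Compounds in acetone were track-sprayed at 15-1000 g ai/ha (187 l/ha) on sandy loam pots: pre-emerge one day after seeding, post-emerge at 2-3 leaf stage with 0.25% v/v non-ionic surfactant. Phytotoxicity was rated 14 days later on a 0 (no damage) to 100 (complete death) scale.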

[13] = tested on: ivyleaf morningglory (Ipomoea hederacea, IPOHE); assay: as above; settings: pre-emerge, phytotoxicity rating 0-100 at 14 days after application
Outline: as §3

[14] = tested on: velvetleaf (Abutilon theophrasti, ABUTH); assay: as above; settings: pre-emerge, phytotoxicity rating 0-100 at 14 days after application
Outline: as §3

[15] = tested on: large crabgrass (Digitaria sanguinalis, DIGSA); assay: as above; settings: pre-emerge, phytotoxicity rating 0-100 at 14 days after application
Outline: as §3

[16] = tested on: green foxtail (Setaria viridis, SETVI); assay: as above; settings: pre-emerge, phytotoxicity rating 0-100 at 14 days after application
Outline: as §3

[17] = tested on: barnyardgrass (Echinochloa crus-galli, ECHCG); assay: as above; settings: pre-emerge, phytotoxicity rating 0-100 at 14 days after application
Outline: as §3

[18] = tested on: lambsquarters (Chenopodium album, CHEAL); assay: as above; settings: pre-emerge, phytotoxicity rating 0-100 at 14 days after application
Outline: as §3

[19] = tested on: field corn (Zea mays L., var. Dekalb 535, CORN); assay: Post-emerge test, crop safety; settings: post-emerge, crop damage rating 0-100 at 14 days after application
Outline: as §3

[20] = tested on: upland rice (Oryza sp., var. Tebonnet, RICE); assay: Post-emerge test, crop safety; settings: post-emerge, crop damage rating 0-100 at 14 days after application
Outline: as §3

Cc1c(Cl)cc(F)c(-n2c(=O)cc(C(F)(F)F)n(C)c2=O)c1NC(=O)OCc1ccco1 [4-70]
Post-emerge Herbicidal Activity AMARE ([1]; 63 g ai/ha): 90 | Post-emerge Herbicidal Activity AMARE ([1]; 250 g ai/ha): 100 | Post-emerge Herbicidal Activity CASOB ([2]; 63 g ai/ha): 60 | Post-emerge Herbicidal Activity CASOB ([2]; 250 g ai/ha): 90 | Post-emerge Herbicidal Activity IPOHE ([3]; 63 g ai/ha): 100 | Post-emerge Herbicidal Activity IPOHE ([3]; 250 g ai/ha): 100 | Post-emerge Herbicidal Activity ABUTH ([4]; 63 g ai/ha): 100 | Post-emerge Herbicidal Activity ABUTH ([4]; 250 g ai/ha): 100 | Post-emerge Herbicidal Activity DIGSA ([5]; 63 g ai/ha): 30 | Post-emerge Herbicidal Activity DIGSA ([5]; 250 g ai/ha): 70 | Post-emerge Herbicidal Activity SETVI ([6]; 63 g ai/ha): 60 | Post-emerge Herbicidal Activity SETVI ([6]; 250 g ai/ha): 95 | Post-emerge Herbicidal Activity ECHCG ([7]; 63 g ai/ha): 40 | Post-emerge Herbicidal Activity ECHCG ([7]; 250 g ai/ha): 80 | Post-emerge Herbicidal Activity CHEAL ([8]; 63 g ai/ha): 90 | Post-emerge Herbicidal Activity CHEAL ([8]; 250 g ai/ha): 100 | Pre-emerge Herbicidal Activity CORN ([9]; rate 63 g ai/ha): 90 | Pre-emerge Herbicidal Activity CORN ([9]; rate 250 g ai/ha): 95 | Pre-emerge Herbicidal Activity RICE ([10]; rate 63 g ai/ha): 40 | Pre-emerge Herbicidal Activity RICE ([10]; rate 250 g ai/ha): 70 | Pre-emerge Herbicidal Activity AMARE ([11]; rate 63 g ai/ha): 100 | Pre-emerge Herbicidal Activity AMARE ([11]; rate 250 g ai/ha): 100 | Pre-emerge Herbicidal Activity CASOB ([12]; rate 63 g ai/ha): 50 | Pre-emerge Herbicidal Activity CASOB ([12]; rate 250 g ai/ha): 80 | Pre-emerge Herbicidal Activity IPOHE ([13]; rate 63 g ai/ha): 100 | Pre-emerge Herbicidal Activity IPOHE ([13]; rate 250 g ai/ha): 100 | Pre-emerge Herbicidal Activity ABUTH ([14]; rate 63 g ai/ha): 100 | Pre-emerge Herbicidal Activity ABUTH ([14]; rate 250 g ai/ha): 100 | Pre-emerge Herbicidal Activity DIGSA ([15]; rate 63 g ai/ha): 60 | Pre-emerge Herbicidal Activity DIGSA ([15]; rate 250 g ai/ha): 100 | Pre-emerge Herbicidal Activity SETVI ([16]; rate 63 g ai/ha): 60 | Pre-emerge Herbicidal Activity SETVI ([16]; rate 250 g ai/ha): 100 | Pre-emerge Herbicidal Activity ECHCG ([17]; rate 63 g ai/ha): 40 | Pre-emerge Herbicidal Activity ECHCG ([17]; rate 250 g ai/ha): 95 | Pre-emerge Herbicidal Activity CHEAL ([18]; rate 63 g ai/ha): 100 | Pre-emerge Herbicidal Activity CHEAL ([18]; rate 250 g ai/ha): 100 | Post-emerge Herbicidal Activity CORN ([19]; 63 g ai/ha): 40 | Post-emerge Herbicidal Activity CORN ([19]; 250 g ai/ha): 90 | Post-emerge Herbicidal Activity RICE ([20]; 63 g ai/ha): 30 | Post-emerge Herbicidal Activity RICE ([20]; 250 g ai/ha): 70
